According to patent US10072026B2, “Crystalline form of 3-((1R,3s,5S)-3-((7-((5-methyl-1H-pyrazol-3-yl)amino)-1,6-naphthyridin-5-yl)amino)-8-azabicyclo[3.2.1]octan-8-yl)propanenitrile” (priority 2015, dated 2018):
Read-outs that look alike come from different tables or passages of the source.

Assays:
Tyk2 = Tyk2 (Homo sapiens (Human), UniProt P29597); experiment: LanthaScreen JAK biochemical assay (Tyk2); settings: for Ki: read-out: Tyk 2 (pKi) (converted)
[1] = tested on: IL-4 induced STAT6 phosphorylation in THP-1 human monocytic cells; experiment: Cellular JAK potency assay, THP-1
JAK1 = JAK1 (Homo sapiens (Human), UniProt P23458); experiment: LanthaScreen JAK biochemical assay (JAK1)
JAK2 = JAK2 (Homo sapiens (Human), UniProt O60674); experiment: LanthaScreen JAK biochemical assay (JAK2); settings: for Ki: read-out: JAK 2 (pKi) (converted)
[2] = tested on: IL-13 induced STAT6 phosphorylation in BEAS-2B human lung epithelial cells; experiment: AlphaScreen cellular JAK potency assay, BEAS-2B
[3] = Homo sapiens, THP-1, read-out: THP-1 IL4 pIC50 (converted)
[4] = THP-1 cells, IL-4 induced STAT6 phosphorylation
[5] = IL-4 induced STAT6 phosphorylation, THP-1 cells
[6] = read-out: JAK 1 (pKi) (converted)
[7] = IL-13 induced STAT6 phosphorylation, BEAS-2B cells
[8] = Homo sapiens, BEAS-2B, read-out: BEAS2B pIC50 (converted)
[9] = BEAS-2B cells, IL-13 induced STAT6 phosphorylation

Chain of JAK1 (P23458 whole entry): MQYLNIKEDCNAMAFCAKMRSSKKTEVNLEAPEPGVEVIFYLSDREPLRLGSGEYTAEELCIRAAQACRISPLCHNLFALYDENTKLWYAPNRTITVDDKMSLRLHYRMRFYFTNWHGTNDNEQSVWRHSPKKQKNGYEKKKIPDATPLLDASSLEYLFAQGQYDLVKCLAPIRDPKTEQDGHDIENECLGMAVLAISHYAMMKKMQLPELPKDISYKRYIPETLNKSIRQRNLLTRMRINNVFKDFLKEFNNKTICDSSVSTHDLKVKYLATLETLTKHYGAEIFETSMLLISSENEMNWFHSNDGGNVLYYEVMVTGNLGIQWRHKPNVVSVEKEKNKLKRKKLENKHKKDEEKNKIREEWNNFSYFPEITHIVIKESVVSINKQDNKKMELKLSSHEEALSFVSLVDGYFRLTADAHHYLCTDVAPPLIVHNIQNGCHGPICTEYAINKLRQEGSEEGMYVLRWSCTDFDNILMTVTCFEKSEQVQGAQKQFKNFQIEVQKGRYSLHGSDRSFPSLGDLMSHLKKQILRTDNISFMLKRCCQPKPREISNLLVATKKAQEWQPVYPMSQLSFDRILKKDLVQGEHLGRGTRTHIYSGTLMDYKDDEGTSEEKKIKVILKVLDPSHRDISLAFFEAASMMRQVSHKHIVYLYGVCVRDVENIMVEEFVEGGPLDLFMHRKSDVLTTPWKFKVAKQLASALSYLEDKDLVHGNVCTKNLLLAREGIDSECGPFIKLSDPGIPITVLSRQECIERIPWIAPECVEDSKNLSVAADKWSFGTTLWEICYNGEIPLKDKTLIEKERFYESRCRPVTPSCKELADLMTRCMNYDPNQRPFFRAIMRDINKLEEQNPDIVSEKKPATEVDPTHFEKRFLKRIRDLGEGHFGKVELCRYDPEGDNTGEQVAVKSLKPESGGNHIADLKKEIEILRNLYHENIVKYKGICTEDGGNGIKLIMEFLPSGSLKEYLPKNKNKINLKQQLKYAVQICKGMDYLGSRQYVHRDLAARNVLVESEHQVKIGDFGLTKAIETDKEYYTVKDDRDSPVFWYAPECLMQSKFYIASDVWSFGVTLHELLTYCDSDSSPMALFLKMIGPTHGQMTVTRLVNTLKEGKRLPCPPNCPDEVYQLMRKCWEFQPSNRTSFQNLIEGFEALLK
Chain of JAK2 (O60674 whole entry): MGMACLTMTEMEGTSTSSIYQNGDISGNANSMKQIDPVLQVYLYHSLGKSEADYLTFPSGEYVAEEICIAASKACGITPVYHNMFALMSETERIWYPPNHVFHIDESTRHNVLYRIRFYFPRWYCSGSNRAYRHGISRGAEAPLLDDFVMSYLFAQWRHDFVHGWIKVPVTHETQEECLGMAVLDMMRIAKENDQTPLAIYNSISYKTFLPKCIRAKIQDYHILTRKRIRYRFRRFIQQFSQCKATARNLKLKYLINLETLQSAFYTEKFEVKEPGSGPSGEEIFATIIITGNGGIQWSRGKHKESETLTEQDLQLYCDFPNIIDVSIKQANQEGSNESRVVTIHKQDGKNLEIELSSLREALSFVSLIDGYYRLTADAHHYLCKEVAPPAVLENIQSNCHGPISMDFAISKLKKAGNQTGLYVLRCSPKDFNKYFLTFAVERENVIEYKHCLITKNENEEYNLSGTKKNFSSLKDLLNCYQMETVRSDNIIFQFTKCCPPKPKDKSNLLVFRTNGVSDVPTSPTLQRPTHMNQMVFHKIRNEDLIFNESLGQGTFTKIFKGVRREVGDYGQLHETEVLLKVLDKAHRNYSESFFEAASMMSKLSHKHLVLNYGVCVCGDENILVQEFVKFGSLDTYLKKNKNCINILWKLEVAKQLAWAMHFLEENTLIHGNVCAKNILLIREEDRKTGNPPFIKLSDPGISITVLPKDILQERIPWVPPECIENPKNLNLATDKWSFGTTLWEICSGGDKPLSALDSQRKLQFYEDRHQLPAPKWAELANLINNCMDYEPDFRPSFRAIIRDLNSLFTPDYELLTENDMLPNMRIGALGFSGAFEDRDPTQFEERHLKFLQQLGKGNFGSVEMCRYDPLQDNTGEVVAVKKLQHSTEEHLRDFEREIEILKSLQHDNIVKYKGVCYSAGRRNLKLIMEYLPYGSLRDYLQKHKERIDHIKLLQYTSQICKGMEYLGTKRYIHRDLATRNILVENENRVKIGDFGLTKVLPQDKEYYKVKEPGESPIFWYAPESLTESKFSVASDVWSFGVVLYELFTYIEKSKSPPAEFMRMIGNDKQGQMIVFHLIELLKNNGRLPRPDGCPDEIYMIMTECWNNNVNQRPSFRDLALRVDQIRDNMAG
Chain of Tyk2 (P29597 whole entry): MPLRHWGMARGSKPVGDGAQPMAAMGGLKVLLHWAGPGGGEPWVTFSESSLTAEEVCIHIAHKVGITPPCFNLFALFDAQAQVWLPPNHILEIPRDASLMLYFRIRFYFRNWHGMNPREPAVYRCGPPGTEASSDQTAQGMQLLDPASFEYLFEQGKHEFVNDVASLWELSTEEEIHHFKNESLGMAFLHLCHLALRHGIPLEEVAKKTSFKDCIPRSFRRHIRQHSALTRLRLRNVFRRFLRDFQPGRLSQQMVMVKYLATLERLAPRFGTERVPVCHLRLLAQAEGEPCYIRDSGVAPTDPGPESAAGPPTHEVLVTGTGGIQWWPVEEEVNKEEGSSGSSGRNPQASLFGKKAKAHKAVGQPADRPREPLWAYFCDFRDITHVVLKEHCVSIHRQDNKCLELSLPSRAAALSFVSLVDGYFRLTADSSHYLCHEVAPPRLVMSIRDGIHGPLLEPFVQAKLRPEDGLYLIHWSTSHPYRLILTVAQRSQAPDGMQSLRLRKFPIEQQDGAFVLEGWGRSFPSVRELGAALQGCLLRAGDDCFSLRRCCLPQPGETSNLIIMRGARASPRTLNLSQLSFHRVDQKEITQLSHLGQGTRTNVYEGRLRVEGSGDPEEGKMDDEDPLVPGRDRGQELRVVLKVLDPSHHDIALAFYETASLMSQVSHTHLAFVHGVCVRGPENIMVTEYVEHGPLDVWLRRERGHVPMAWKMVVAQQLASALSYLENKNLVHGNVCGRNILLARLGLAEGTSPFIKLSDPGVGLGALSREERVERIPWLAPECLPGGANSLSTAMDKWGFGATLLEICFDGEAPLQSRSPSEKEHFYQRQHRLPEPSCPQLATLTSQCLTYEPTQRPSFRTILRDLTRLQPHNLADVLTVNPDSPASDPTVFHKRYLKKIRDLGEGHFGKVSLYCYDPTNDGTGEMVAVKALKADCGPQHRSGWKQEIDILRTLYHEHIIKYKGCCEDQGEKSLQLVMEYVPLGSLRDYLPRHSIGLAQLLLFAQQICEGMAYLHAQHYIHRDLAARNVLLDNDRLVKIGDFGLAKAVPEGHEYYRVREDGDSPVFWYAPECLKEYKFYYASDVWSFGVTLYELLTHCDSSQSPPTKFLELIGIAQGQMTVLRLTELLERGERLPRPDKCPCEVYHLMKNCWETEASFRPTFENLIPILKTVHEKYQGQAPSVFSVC

| SMILES | Ki (Tyk2) [nM] | IC50 [1, 3] [nM] | JAK 1 (pKi) (JAK1) | JAK 2 (pKi) (JAK2) | Tyk 2 (pKi) (Tyk2) | also measured |
| --- | --- | --- | --- | --- | --- | --- |
| COC(=O)c1cnc2cc(Nc3cc(C)[nH]n3)nc(N[C@@H]3C[C@H]4CC[C@@H](C3)N4S(C)(=O)=O)c2c1 [Example 6-33] | 0.1 to 1 | 31.6 to 200 |  |  |  |  |
| Cc1cc(Nc2cc3nc(CN4CCN(C)CC4)ccc3c(N[C@@H]3C[C@H]4CC[C@@H](C3)N4S(=O)(=O)N3CCC3)n2)n[nH]1 [Example 5-39] | 0.1 to 1 | 31.6 to 200 |  |  |  | Ki (JAK1): 0.1 to 1 nM; Ki (JAK2): 0.1 to 1 nM |
| COc1cnc2cc(Nc3cc(C)[nH]n3)nc(N[C@@H]3C[C@H]4CC[C@@H](C3)N4CCC#N)c2c1 [Example 6-11] |  |  | B (B represents a pKi value between 9 and 10 (Ki between 1 nM and 0.1 nM)) | B (B represents a pKi value between 9 and 10 (Ki between 1 nM and 0.1 nM)) | B (B represents a pKi value between 9 and 10 (Ki between 1 nM and 0.1 nM)) | THP-1 IL4 pIC50 [1, 4]: A (A represents a pEC50 value≥7.5 (EC50≤32 nM)) |
| Cc1cc(Nc2cc3nc(CS(C)(=O)=O)ccc3c(N[C@@H]3C[C@H]4CC[C@@H](C3)N4CCF)n2)n[nH]1 [Example 5-41] |  |  | B (B represents a pKi value between 9 and 10 (Ki between 1 nM and 0.1 nM)) | B (B represents a pKi value between 9 and 10 (Ki between 1 nM and 0.1 nM)) | B (B represents a pKi value between 9 and 10 (Ki between 1 nM and 0.1 nM)) | THP-1 IL4 pIC50 [1, 5]: C (C represents a pEC50 value<6.7 (EC50>200 nM)) |
| CCS(=O)(=O)N1[C@@H]2CC[C@H]1C[C@H](Nc1nc(Nc3cc(C)[nH]n3)cc3ncc(C(=O)OC)cc13)C2 [Example 6-34] | 0.1 to 1 | < 31.6 |  |  |  |  |
| Cc1cnc2c(F)c(Nc3cc(C)[nH]n3)nc(N[C@@H]3C[C@H]4CC[C@@H](C3)N4S(=O)(=O)c3cccnc3)c2c1 [Example 8-20] |  |  | B (B represents a pKi value between 9 and 10 (Ki between 1 nM and 0.1 nM)) | C (C represents a pKi value between 7 and 9 (Ki between 100 nM and 1 nM)) | C (C represents a pKi value between 7 and 9 (Ki between 100 nM and 1 nM)) | THP-1 IL4 pIC50 [1, 4]: C (C represents a pEC50 value<6.7 (EC50>200 nM)) |
| CCC1(S(=O)(=O)N2[C@@H]3CC[C@H]2C[C@H](Nc2nc(Nc4cc(C)[nH]n4)cc4ncccc24)C3)CC1 [Example 4-7] | 0.1 to 1 | < 31.6 |  |  |  | Ki (JAK1): 0.1 to 1 nM; Ki (JAK2): 0.1 to 1 nM |
| Cc1cc(Nc2cc3ncccc3c(N[C@@H]3C[C@H]4CCC[C@@H](C3)N4S(=O)(=O)CC(C)C)n2)n[nH]1 [Example 4-17] |  |  | B (B represents a pKi value between 9 and 10 (Ki between 1 nM and 0.1 nM)) | B (B represents a pKi value between 9 and 10 (Ki between 1 nM and 0.1 nM)) | B (B represents a pKi value between 9 and 10 (Ki between 1 nM and 0.1 nM)) | THP-1 IL4 pIC50 [1, 5]: A (A represents a pEC50 value≥7.5 (EC50≤32 nM)) |
| Cc1cc(Nc2cc3ncccc3c(N[C@@H]3C[C@H]4CC[C@@H](C3)N4S(C)(=O)=O)n2)n[nH]1 [Example 4-1] | 0.1 to 1 | < 31.6 |  |  |  | Ki (JAK2): 0.1 to 1 nM |
| COC(=O)c1cnc2cc(Nc3cc(C)[nH]n3)nc(N[C@@H]3C[C@H]4CC[C@@H](C3)N4C3CCOC3=O)c2c1 (stereo partly shown) [Example 6-35] | 0.1 to 1 | 31.6 to 200 |  |  |  | Ki (JAK1; [6]): 0.1 to 1 nM |
| Cc1cc(Nc2cc3ncccc3c(N[C@@H]3C[C@H]4CCC[C@@H](C3)N4Cc3ccnc(C#N)c3)n2)n[nH]1 [Example 1-55] |  |  |  |  | C (C represents a pKi value between 7 and 9 (Ki between 100 nM and 1 nM)) | BEAS2B pIC50 [2, 7]: B (B represents a pEC50 value between 6.7 and 7.5 (EC50 between 200 nM and 32 nM)) |
| COc1ccnc2cc(Nc3cc(C)[nH]n3)nc(N[C@@H]3C[C@H]4CC[C@@H](C3)N4C3(CC#N)COC3)c12 [Example 7-10] | 0.1 to 1 |  |  |  |  | Ki (JAK1; [6]): 0.1 to 1 nM; Ki (JAK2): 0.1 to 1 nM |
| Cc1cc(Nc2cc3ncccc3c(N[C@@H]3C[C@H]4CC[C@@H](C3)N4C(=O)CF)n2)n[nH]1 [Example 2-2] | 1 to 100 |  |  |  |  | Ki (JAK1; [6]): 0.1 to 1 nM; Ki (JAK2): 1 to 100 nM |
| COc1cnc2cc(Nc3cc(C)[nH]n3)nc(N[C@@H]3C[C@H]4CC[C@@H](C3)N4S(C)(=O)=O)c2c1 [Example 6-18] | 0.1 to 1 | < 31.6 |  |  |  | IC50 [2, 8]: < 31.6 nM |
| Cc1cc(Nc2cc3ncccc3c(N[C@@H]3C[C@H]4CCC[C@@H](C3)N4S(=O)(=O)c3cncc(F)c3)n2)n[nH]1 [Example 14, N^5-((1R,3s,5S)-9-((5-fluoropyridin-3-yl)sulfonyl)-9-azabicyclo[3.3.1]nonan-3-yl)-N^7-(5-methyl-1H-pyrazol-3-yl)-1,6-naphthyridine-5,7-diamine] | 0.1 to 1 | < 31.6 |  |  |  | IC50 [2, 8]: < 31.6 nM |
| Cc1cc(Nc2cc3nc(CO)ccc3c(N[C@@H]3C[C@H]4CC[C@@H](C3)N4S(C)(=O)=O)n2)n[nH]1 [Example 5-12] | 0.1 to 1 | 31.6 to 200 |  |  |  |  |
| COc1cnc2cc(Nc3cc(C)[nH]n3)nc(N[C@@H]3C[C@H]4CCC[C@@H](C3)N4C(=O)CN(C)C)c2c1 [Example 6-30] |  |  | B (B represents a pKi value between 9 and 10 (Ki between 1 nM and 0.1 nM)) | B (B represents a pKi value between 9 and 10 (Ki between 1 nM and 0.1 nM)) | B (B represents a pKi value between 9 and 10 (Ki between 1 nM and 0.1 nM)) | THP-1 IL4 pIC50 [1, 4]: C (C represents a pEC50 value<6.7 (EC50>200 nM)) |
| Cc1cc(Nc2cc3ncccc3c(N[C@@H]3C[C@H]4CCC[C@@H](C3)N4C(=O)c3ccc(C#N)nc3)n2)n[nH]1 [Example 2-28] |  |  | B (B represents a pKi value between 9 and 10 (Ki between 1 nM and 0.1 nM)) |  | B (B represents a pKi value between 9 and 10 (Ki between 1 nM and 0.1 nM)) | BEAS2B pIC50 [2, 7]: C (C represents a pEC50 value<6.7 (EC50>200 nM)) |
| Cc1cc(Nc2cc3ncccc3c(N[C@@H]3C[C@H]4CC[C@@H](C3)N4C3CCCOC3=O)n2)n[nH]1 (stereo partly shown) [Example 1-28] | 1 to 100 | > 200 |  |  |  | Ki (JAK2): 1 to 100 nM |
| CCOC(=O)N1[C@@H]2CCC[C@H]1C[C@H](Nc1nc(Nc3cc(C)[nH]n3)cc3ncccc13)C2 [Example 3-6] |  |  | B (B represents a pKi value between 9 and 10 (Ki between 1 nM and 0.1 nM)) |  | B (B represents a pKi value between 9 and 10 (Ki between 1 nM and 0.1 nM)) | THP-1 IL4 pIC50 [1, 5]: A (A represents a pEC50 value≥7.5 (EC50≤32 nM)) |
| Cc1cc(Nc2cc3ncccc3c(N[C@@H]3C[C@H]4CCC[C@@H](C3)N4CC(N)=O)n2)n[nH]1 [Example 1-37] |  |  |  | A (A represents a pKi value≥10 (Ki≤0.1 nM)) | C (C represents a pKi value between 7 and 9 (Ki between 100 nM and 1 nM)) | THP-1 IL4 pIC50 [1, 5]: B (B represents a pEC50 value between 6.7 and 7.5 (EC50 between 200 nM and 32 nM)) |
| COCCCN1[C@@H]2CC[C@H]1C[C@H](Nc1nc(Nc3cc(C)[nH]n3)cc3ncccc13)C2 [Example 1-15] |  |  | C (C represents a pKi value between 7 and 9 (Ki between 100 nM and 1 nM)) | C (C represents a pKi value between 7 and 9 (Ki between 100 nM and 1 nM)) | C (C represents a pKi value between 7 and 9 (Ki between 100 nM and 1 nM)) | THP-1 IL4 pIC50 [1, 5]: C (C represents a pEC50 value<6.7 (EC50>200 nM)) |
| Cc1cc(Nc2cc3nc(CN4CCOCC4)ccc3c(N[C@@H]3C[C@H]4CCC[C@@H](C3)N4CCC#N)n2)n[nH]1 [Example 5-26] |  |  | A (A represents a pKi value≥10 (Ki≤0.1 nM)) | A (A represents a pKi value≥10 (Ki≤0.1 nM)) | B (B represents a pKi value between 9 and 10 (Ki between 1 nM and 0.1 nM)) | THP-1 IL4 pIC50 [1, 5]: A (A represents a pEC50 value≥7.5 (EC50≤32 nM)) |
| Cc1cc(Nc2nc(N[C@@H]3C[C@H]4CCC[C@@H](C3)N4S(C)(=O)=O)c3cccnc3c2F)n[nH]1 [Example 8-10] |  |  | A (A represents a pKi value≥10 (Ki≤0.1 nM)) | A (A represents a pKi value≥10 (Ki≤0.1 nM)) |  | THP-1 IL4 pIC50 [1, 4]: A (A represents a pEC50 value≥7.5 (EC50≤32 nM)); BEAS2B pIC50 [2, 9]: A (A represents a pEC50 value≥7.5 (EC50≤32 nM)) |
| Cc1cc(Nc2cc3ncccc3c(N[C@@H]3C[C@H]4CC[C@@H](C3)N4C(C)CC#N)n2)n[nH]1 (stereo partly shown) [Example 1-21] |  |  | B (B represents a pKi value between 9 and 10 (Ki between 1 nM and 0.1 nM)) | B (B represents a pKi value between 9 and 10 (Ki between 1 nM and 0.1 nM)) |  | THP-1 IL4 pIC50 [1, 5]: A (A represents a pEC50 value≥7.5 (EC50≤32 nM)); BEAS2B pIC50 [2, 7]: B (B represents a pEC50 value between 6.7 and 7.5 (EC50 between 200 nM and 32 nM)) |
| Cc1cc(Nc2nc(N[C@@H]3C[C@H]4CC[C@@H](C3)N4Cc3ccncc3)c3cccnc3c2F)n[nH]1 [Example 8-6] |  |  | B (B represents a pKi value between 9 and 10 (Ki between 1 nM and 0.1 nM)) | B (B represents a pKi value between 9 and 10 (Ki between 1 nM and 0.1 nM)) |  | THP-1 IL4 pIC50 [1, 4]: B (B represents a pEC50 value between 6.7 and 7.5 (EC50 between 200 nM and 32 nM)); BEAS2B pIC50 [2, 9]: B (B represents a pEC50 value between 6.7 and 7.5 (EC50 between 200 nM and 32 nM)) |
| Cc1cnc2cc(Nc3cc(C)[nH]n3)nc(N[C@@H]3C[C@H]4CC[C@@H](C3)N4Cc3ccncc3)c2c1 [Example 6-2] |  |  | B (B represents a pKi value between 9 and 10 (Ki between 1 nM and 0.1 nM)) | B (B represents a pKi value between 9 and 10 (Ki between 1 nM and 0.1 nM)) |  | THP-1 IL4 pIC50 [1, 4]: A (A represents a pEC50 value≥7.5 (EC50≤32 nM)); BEAS2B pIC50 [2, 9]: B (B represents a pEC50 value between 6.7 and 7.5 (EC50 between 200 nM and 32 nM)) |
| COc1ccnc2cc(Nc3cc(C)[nH]n3)nc(N[C@@H]3C[C@H]4CC[C@@H](C3)N4CC(F)(F)F)c12 [Example 7-9] |  | < 31.6 |  |  |  | Ki (JAK1): 0.1 to 1 nM; Ki (JAK2): 0.1 to 1 nM; IC50 [2, 8]: < 31.6 nM |
